Here are results for three compounds from paper PMC3771382 (ChemMedChem, 2012).

One data set addresses human GLP-1R (Homo sapiens, UniProt P43220). In words: RIP1-CRE-Luc luciferase reporter. Format: cell-based. The note with it: HEK-GLP-1R cells transfected with RIP1-CRE-Luc; 4 h exposure. (In a reporter assay the amount or activity of a reporter protein is the signal.)
For data set [1] the following is noted: ref [8],[9]; cited from earlier work.
The subject of data set [2] is dipeptidyl peptidase IV (DPP-IV). The note with it: ref [8],[9]; cited from earlier work.

human GLP-1R, sequence (P43220 24-463): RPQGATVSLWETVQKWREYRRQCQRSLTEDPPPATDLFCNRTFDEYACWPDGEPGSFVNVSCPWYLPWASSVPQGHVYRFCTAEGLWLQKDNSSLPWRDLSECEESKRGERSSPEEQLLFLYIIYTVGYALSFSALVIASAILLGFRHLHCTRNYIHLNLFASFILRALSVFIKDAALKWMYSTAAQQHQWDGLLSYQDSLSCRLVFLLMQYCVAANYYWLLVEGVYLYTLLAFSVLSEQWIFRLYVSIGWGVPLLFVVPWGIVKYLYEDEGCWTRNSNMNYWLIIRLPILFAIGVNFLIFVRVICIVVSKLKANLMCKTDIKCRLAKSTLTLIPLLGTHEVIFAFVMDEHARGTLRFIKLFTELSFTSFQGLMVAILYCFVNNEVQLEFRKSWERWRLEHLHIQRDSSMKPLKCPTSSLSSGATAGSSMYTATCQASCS

Turning to `CC[C@H](C)[C@H](NC(=O)[C@H](Cc1ccccc1)NC(=O)[C@H](CCC(=O)O)NC(=O)[C@H](CCCCNC(=O)OC[C@H]1O[C@H](n2cnc3cc(C)c(C)cc32)[C@H](O)[C@@H]1OP(=O)(O)O[C@H](C)CNC(=O)CC[C@@]1(C)/C2=C(\C)C3=N/C(=C\C4=NC(=C(/C)C5=N[C@@](C)([C@H](N2)[C@@H]1CC(N)=O)[C@@](C)(CC(N)=O)[C@@H]5CCC(N)=O)/[C@@](C)(CC(N)=O)[C@@H]4CCC(N)=O)C(C)(C)[C@@H]3CCC(N)=O)NC(=O)[C@H](C)NC(=O)[C@H](C)NC(=O)[C@H](CCC(N)=O)NC(=O)CNC(=O)[C@H](CCC(=O)O)NC(=O)[C@H](CC(C)C)NC(=O)[C@H](Cc1ccc(O)cc1)NC(=O)[C@H](CO)NC(=O)[C@H](CO)NC(=O)[C@@H](NC(=O)[C@H](CC(=O)O)NC(=O)[C@H](CO)NC(=O)[C@@H](NC(=O)[C@H](Cc1ccccc1)NC(=O)[C@@H](NC(=O)CNC(=O)[C@H](CCC(=O)O)NC(=O)[C@H](C)NC(=O)[C@@H](N)Cc1c[nH]cn1)[C@@H](C)O)[C@@H](C)O)C(C)C)C(=O)N[C@@H](C)C(=O)N[C@@H](Cc1c[nH]c2ccccc12)C(=O)N[C@@H](CC(C)C)C(=O)N[C@H](C(=O)N[C@@H](CCCNC(=N)N)C(=O)NCC(=O)N[C@@H](CCCNC(=N)N)C(N)=O)C(C)C` [compound 1], the “luciferase response (in words)” value on human GLP-1R was “concentration-dependent response”.
Still for that read-out and setting: in the case of cyanocobalamin [B12] it was “did not produce any response”.
In the case of “glucagon-like peptide-1 (7–36) amide [GLP-1]”, the “fraction of secreted GLP-1 surviving intact to the systemic circulation” value in data set [1] is recorded as 10–15%. Besides, the “t1/2, degradation by DPP-IV” value in data set [2] was 1 to 2 min.
